# Results: patent US20240150302A1, “6-METHYLURACIL DERIVATIVES WITH ANTICHOLINESTERASE ACTIVITY AND THEIR USE” (priority 2021, published 2024)
# Tests used:
# [1] = system: mice of the CD-1 line; experiment: General toxic effect (LD50) in mice; conditions: for LD50 (in mice, i.p.): intraperitoneal; for LD50 (in mice, p.o.): oral; for Times less toxic than donepezil hydrochloride, oral: ratio of LD50, administered orally; for Times less toxic than donepezil hydrochloride, intraperitoneal / Times less toxic than the free base: ratio of LD50, intraperitoneal
# Experimental: Ed. A. N. Mironova] on mice of the CD-1 line (“Puschino” Nursery, Moscow Region), both males and females, weighing 19.0±2.0 g, kept on a standard diet in the day/night lighting regimen (12 hours) at 22° C.
# [2] = system: transgenic mice with genotype B6C3-Tg(APP695)85Dbo Tg(PSENI)85Dbo; experiment: "Rewarded alternation" test in a T-maze, genetic model of Alzheimer's disease; format: in vivo; conditions: administered orally, compared with healthy animals
# Excerpt: At the beginning of the research, the age of the transgenic mice was 9 months.
# At the beginning of the research, the age of the transgenic mice was 8 months.
# [3] = system: transgenic mice of the B6C3-Tg(APP695)85Dbo Tg(PSENI)85Dbo genotype; experiment: Number of amyloid plaques in the cortex, Thioflavin S staining of brain sections; format: in vivo; conditions: administered orally
# Experimental: The line was purchased at The Jackson Laboratory (USA) and kept in the “Pushchino” nursery for laboratory animals Pushchino, Moscow Region). At the beginning of the research, the age of the transgenic mice was 9 months.
# (§1) An equivalent amount of water (Water (Tg+)) was orally administered to control groups of transgenic mice.
# Amyloid-beta deposits were evaluated after sacrifice on mouse brain sections (20 μm) using the Thioflavin S fluorescent dye and the Olympus BX51W1 fluorescence microscope, by the method described in the article [http://library.med.utah.edu/WebPath/histhtml/manuals/manuals.html].
# The line was purchased at The Jackson Laboratory (USA) and kept in the “Pushchino” nursery for laboratory animals Pushchino, Moscow Region). At the beginning of the research, the age of the transgenic mice was 8 months.
# as §1
# [4] = Solubility in water and organic solvents; format: physicochemical
# [5] = system: mice of the CD-1 line; conditions: in mice, i.p.; prior-art free base; cited from earlier work
# [6] = system: transgenic mice of the B6C3-Tg(APP695)85Dbo Tg(PSENI)85Dbo genotype; conditions: 5 mg/kg daily intraperitoneal, RU patent No. 2565756; cited from earlier work
SMILES,"LD50 (in mice, i.p.) [1] [mg/kg]","LD50 (in mice, p.o.) [1] [mg/kg]","Times less toxic than donepezil hydrochloride, oral [1] [times]","Times less toxic than donepezil hydrochloride, intraperitoneal [1] [times]",Times less toxic than the free base [1] [times],Correction of memory impairment [2],Effect on the number of amyloid plaques in the cortex [3],Solubility [4],LD50 (background statement) [5] [mg/kg],Reduction of the number of amyloid deposits in the cerebral cortex [6] [%]
"CCN(CCCCCn1c(C)cc(=O)n(CCCCCN(CC)Cc2ccccc2[N+](=O)[O-])c1=O)Cc1ccccc1[N+](=O)[O-].Cl.Cl [Compound (2), 1,3-bis[5-(ortho-nitrobenzylethylamino)pentyl]-6-methyluracil dihydrochloride]",150,290,6,30,~3,effective for correcting memory impairment,more effective than donepezil hydrochloride for preventing the formation of amyloid plaques,"soluble in dimethylformamide, dimethyl sulfoxide, ethyl alcohol, and water",–,–
"CCN(CCCCCn1c(C)cc(=O)n(CCCCCN(CC)Cc2ccccc2[N+](=O)[O-])c1=O)Cc1ccccc1[N+](=O)[O-] [1,3-bis[5-(ortho-nitrobenzyl-ethylamino)pentyl-1]-6-methyluracil, reference compound]",51,–,–,–,–,–,–,insoluble in water,51.48,50
"Br.Br.CCN(CCCCCn1c(C)cc(=O)n(CCCCCN(CC)Cc2ccccc2[N+](=O)[O-])c1=O)Cc1ccccc1[N+](=O)[O-] [Compound (1), 1,3-bis[5-(ortho-nitrobenzylethylamino)pentyl]-6-methyluracil dihydrobromide]",199,520,12,40,~4,effective for correction of memory impairment,more effective product for prevention of the formation of amyloid plaque than donepezil hydrochloride,"soluble in chloroform, dimethylformamide, dimethyl sulfoxide, ethyl alcohol, and water",–,–
